# Data published in US20260240826A1, “COMPOSITIONS FOR PD-L1 INHIBITION AND METHODS OF USE THEREOF” (ARIZONA BOARD OF REGENTS ON BEHALF OF THE UNIVERSITY OF …, priority 2023, published 2026).
# System: SKH-1 mouse skin
# Test: NanoString nCounter gene expression analysis (Mouse Inflammation V2 panel) of SKH-1 mouse skin
# Assay type: in vivo
# Procedure: UVB exposure was performed on AP-1 luciferase reporter mice on the SKH-1 genetic background at a dose of 2.75 kJ/m2 using FS40 bulbs (Q-Lab Corporation) as described before with the modification that mice were imaged 24 hr post UVB exposure using whole body bioluminescence instead of 48 hr post UVB using ear punches. SSL irradiation of SKH-1 mice (Charles River Laboratories, strain code 477) at a dose of 90 kJ/m2 UVA/6 kJ/m2 UVB was performed using UVA-340 bulbs (Q-Lab Corporation) as described before.
# SKH-1 mouse skin [full thickness, 3 biological samples (i.e., 3 mice per treatment group)] treated either with vehicle (acetone) or 8 mM BMS-202 (all 3 times: 24 hr pre, 1 hr pre, and immediately post) and harvested 24 hr after acute SSL. First, total mRNA was prepared using the RNeasy Mini kit (Qiagen). Next, 100 ng was used for NanoString® nCounter® analysis (using the ‘Mouse Inflammation V2’ panel; probing 254 genes, NanoString® Technologies) comparing gene expression between treatment groups. Total mRNA was hybridized with the ‘Mouse Inflammation V2’ code set at 65° C. overnight. Further purification and binding of the hybridized probes to the optical cartridge was performed on the nCounter® Prep Station, and finally, the cartridge was scanned on the nCounter® Digital Analyzer. RCC files were then imported into nSolver4.0 software (NanoString® Technologies) and checked for data quality using default QC settings; all samples passed data quality QC. All samples were normalized using the geometric mean of the housekeeper genes. Expression ratios were calculated by dividing the mean values of all samples in one experimental group (UV+BMS-202) by the mean values of all samples in the reference group (UV+vehicle control). For data analysis, low count threshold value was 200. For heatmap depiction (FIGS. 3A and 3B, FIG. 5 and FIG. 6), a z-score for a specific gene indicates the number of SDs away from the mean of expression in the reference samples. For ‘pathway score analysis’ (FIGS. 4A, 4B, and 4C), each sample's gene expression profile was then condensed into a small set of pathway scores using nCounter® Advanced Analysis software (version 2.0.115). Pathway scores were fit using the first principal component of each gene set's data, oriented such that each pathway score has positive weights for at least half its genes.
# Individual samples were run in triplicate format of biological replicates, and data analysis was performed using the nSolver analysis software (4.0). For p-value adjustment (Benjamini-Yekutieli False Discovery Rate; p-value threshold: 0.05), nCounter® Advanced Analysis software (version 2.0.115) was used. Nonparametric data analysis of murine experimentation was performed using the Mann-Whitney test. Differences between groups were considered significant at *p<0.05.
# [1] = 8 mM topical + SSL vs SSL control, SKH-1 skin, 24 hr
# [2] = 8 mM topical + SSL vs vehicle + SSL
structure (smiles),measurement,setting,value
COc1nc(OCc2cccc(-c3ccccc3)c2C)ccc1CNCCNC(C)=O [BMS-202],Bcl6 fold change,[1],−12.8 fold
same,C1qa fold change,[1],−4.5 fold
same,C3 fold change,[1],−9.0 fold
same,C4a fold change,[1],−5.9 fold
same,C8b fold change,[1],26.2 fold
same,C9 fold change,[1],18.6 fold
same,Ccl2 fold change,[1],−5.3 fold
same,Ccl2 fold downregulation,[1],5.3 fold
same,Ccl7 fold change,[1],−8.1 fold
same,Ccl7 fold downregulation,[1],8.1 fold
same,Ccl8 fold change,[1],−5.0 fold
same,Ccl8 fold downregulation,[1],5.0 fold
same,Ccr3 fold change,[1],20.5 fold
same,Cdc42 fold change,[1],−4.6 fold
same,Cebpb fold change,[1],−8.3 fold
same,Cfl1 fold change,[1],−10.8 fold
same,Chi3l3 fold change,[1],10.5 fold
same,Crp fold change,[1],23.9 fold
same,Cxcl1 fold change,[1],−4.1 fold
same,Cxcl1 fold downregulation,[1],4.1 fold
same,Cxcl3 fold change,[1],−9.1 fold
same,Cxcl5 fold change,[1],−11.6 fold
same,Cxcl5 fold downregulation,[1],11.6 fold
same,Cxcl10 fold change,[1],4.3 fold
same,Cysltr2 fold change,[1],14.4 fold
same,Defa-rs1 fold change,[1],51.0 fold
same,Fos fold change,[1],−4.1 fold
same,Fos fold downregulation,[1],4.1 fold
same,Fxyd2 fold change,[1],−17.0 fold
same,Gnas fold change,[1],−11.5 fold
same,Gnas fold downregulation,[1],11.5 fold
same,Gnb1 fold change,[1],−5.8 fold
same,Gnb1 fold downregulation,[1],5.8 fold
same,Grb2 fold change,[1],−4.5 fold
same,H2-Eb1 fold change,[1],−14.2 fold
same,Hif1a fold change,[1],−9.6 fold
same,Hif1a fold downregulation,[1],9.6 fold
same,II1r1 fold downregulation,[1],5.5 fold
same,Ifi44 fold change,[1],5.2 fold
same,Ifna1 fold change,[1],89.3 fold
same,Ifnb1 fold change,[1],16.4 fold
same,Ifng fold change,[1],10.6 fold
same,Il1b fold downregulation,[1],2.9 fold
same,Il1r1 fold change,[1],−5.5 fold
same,Il1rap fold downregulation,[1],3.6 fold
same,Il6ra fold downregulation,[1],3.4 fold
same,Il9 fold change,[1],28.9 fold
same,Il10rb fold downregulation,[1],3.2 fold
same,Il18 fold change,[1],−20.0 fold
same,Il18 fold downregulation,[1],20.0 fold
same,Il21 fold change,[1],50.1 fold
same,Il23a fold change,[1],6.5 fold
same,Irf1 fold change,[1],−4.1 fold
same,Itgb2 fold change,[1],−8.2 fold
same,Jun fold change,[1],−5.9 fold
same,Jun fold downregulation,[1],5.9 fold
same,Kng1 fold change,[1],14.9 fold
same,Ly96 (coreceptor of Tlr4) fold downregulation,[1],11.0 fold
same,Ly96 fold change,[1],−11.0 fold
same,Map2k1 fold change,[1],−5.8 fold
same,Map2k1 fold downregulation,[1],5.8 fold
same,Map2k4 fold change,[1],−6.4 fold
same,Map2k4 fold downregulation,[1],6.4 fold
same,Map3k1 fold change,[1],−4.5 fold
same,Map3k1 fold downregulation,[1],4.5 fold
same,Map3k5 fold change,[1],−6.4 fold
same,Map3k5 fold downregulation,[1],6.4 fold
same,Map3k7 fold downregulation,[1],3.7 fold
same,Mapk1 fold downregulation,[1],3.7 fold
same,Mapk3 fold change,[1],−6.3 fold
same,Mapk3 fold downregulation,[1],6.3 fold
same,Mapk8 fold downregulation,[1],3.1 fold
same,Mapk14 fold change,[1],−5.9 fold
same,Mapk14 fold downregulation,[1],5.9 fold
same,Mapkapk2 fold change,[1],−5.2 fold
same,Mapkapk2 fold downregulation,[1],5.1 fold
same,Mbl2 fold change,[1],15.7 fold
same,Mef2c fold change,[1],−64.9 fold
same,Mmp3 fold downregulation,[1],3.8 fold
same,Mmp9 fold change,[1],−8.2 fold
same,Mmp9 fold downregulation,[1],8.2 fold
same,Mrc1 fold change,[1],−5.4 fold
same,Mx1 fold change,[1],36.2 fold
same,Mx2 fold change,[1],5.3 fold
same,Myc fold downregulation,[1],3.3 fold
same,Myd88 fold downregulation,[1],2.7 fold
same,Nf2el2 fold downregulation,[1],3.5 fold
same,Nfatc3 fold change,[1],−4.1 fold
same,Nfatc3 fold downregulation,[1],4.1 fold
same,Nfkb1 fold change,[1],−5.9 fold
same,Nfkb1 fold downregulation,[1],5.9 fold
same,Nod2 fold change,[1],−5.1 fold
same,Nos2 fold change,[1],6.1 fold
same,Nr3c1 fold change,[1],−4.9 fold
same,Oas1a fold change,[1],−4.3 fold
same,Pdgfa fold change,[1],−5.2 fold
same,Pdgfa fold downregulation,[1],5.2 fold
same,Ppp1r12b fold change,[1],−12.1 fold
same,Ptgs1 fold downregulation,[1],3.1 fold
same,Ptgs2 fold downregulation,[1],1.7 fold
same,Rac1 fold change,[1],−7.3 fold
same,Rac1 fold downregulation,[1],7.3 fold
same,Raf1 fold change,[1],−5.7 fold
same,Raf1 fold downregulation,[1],5.7 fold
same,Rhoa fold change,[1],−5.9 fold
same,Shc1 fold change,[1],−7.4 fold
same,Stat1 fold downregulation,[1],2.8 fold
same,Stat2 fold downregulation,[1],2.5 fold
same,Stat3 fold change,[1],−7.4 fold
same,Stat3 fold downregulation,[1],7.4 fold
same,Tcf4 fold change,[1],−4.4 fold
same,Tgfb1 fold change,[1],−13.3 fold
same,Tgfb1 fold downregulation,[1],13.3 fold
same,Tgfb3 fold downregulation,[1],2.7 fold
same,Tlr2 fold downregulation,[1],2.4 fold
same,Tlr8 fold downregulation,[1],3.4 fold
same,Tlr9 fold change,[1],8.3 fold
same,Tnfsf14 fold change,[1],4.8 fold
same,Trem2 fold change,[1],−4.5 fold
same,Tslp fold change,[1],4.3 fold
same,Tyrobp fold change,[1],−4.9 fold
same,pathway score: immune response,[2],upregulated
same,"pathway scores: activation of NFκB, innate immune response, chemokine activity, inflammatory response, angiogenesis",[2],downregulated
